Test results as given in publication PMC12340956, “Tranylcypromine-Based LSD1 Inhibitors as Useful Agents to Reduce Viability of” (ACS Infectious Diseases, 2025).
Like-named read-outs stand apart in the source and are kept apart here. Values belong to the molecule of their own block, whether it stands above or below them.

Experiments:
[1] = molecular target: T1, human LSD1-CoREST complex (Homo sapiens, UniProt O60341); assay: Spectrophotometric analysis of flavin cofactor bleaching; format: biochemical
T1 construct: made in house

[2] = molecular target: T1, human LSD1-CoREST complex; assay: HRP-coupled LSD1 inhibition assay; format: biochemical; details: 10 min preincubation
In short: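 Human LSD1-CoREST inhibition measured in an HRP-coupled format, with the reaction started by adding substrate to the preformed enzyme–inhibitor mixture. Resorufin fluorescence read at excitation 530–570 nm and emission 580–590 nm.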

[3] = molecular target: T1, human LSD1-CoREST complex; assay: ThermoFAD thermal stability assay; format: binding
In short: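 Thermal shift (ΔTm) of human LSD1-CoREST measured by ThermoFAD following established protocols. For the parallel inhibition read-out, 0.4 μM LSD1-CoREST was preincubated with inhibitor 10 min at 25 °C in 5% DMSO, then substrate added and resorufin fluorescence (ex 530–570, em 580–590 nm) recorded.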

juvenile and adult worms = tested on: juvenile and adult worms; set-up: method as in earlier work of the authors (number not given); details: ref earlier work of the authors (number not given); cited from earlier work
[4] = molecular target: T1, human LSD1-CoREST complex; set-up: method as in footnote c (number not given); details: positive control; ref footnote c (number not given); read-out: IC50 (hLSD1 direct inhibition); cited from earlier work
[5] = tested on: newly transformed schistosomula (NTS); assay: NTS viability phenotypic screening, 72 h
[6] = tested on: S. mansoni juvenile forms; assay: Speed-of-action assay in juvenile forms; format: cell-based, Schistosoma mansoni; details: for IC50: Schistosoma mansoni, read-out: IC50 (speed of action, juvenile forms); for Percentage of effect: juvenile forms
Description: (§1) To better characterize a selection of our LSD1i in vitro, we assessed the onset of their action, defined as the time required for an observable antischistosomal effect. […] For detailed percentages of activity at each time point, refer to the Supporting Information (Tables S2 and S3 in Supporting Information).

NTS = assay: Speed-of-action assay in NTS; format: cell-based, Schistosoma mansoni; details: for Percentage of effect: NTS; for IC50: Schistosoma mansoni, read-out: IC50 (speed of action, NTS)
Description: as §1

[7] = MTT cytotoxicity in RPE cells; format: cell-based; details: human, retinal pigment epithelial (RPE) cells
Experimental: (§2) The MTT method was used to evaluate cell viability after 72 h of treatment.
(§3) Human commercial lung diploid fibroblasts (MRC-5), and diploid retinal epithelium cells (RPE) were obtained from the American Type Culture Collection (ATCC) and kindly provided by Dr Francesca Degrassi (CNR IBPM) and maintained in minimal essential medium or DMEM-F12 medium supplemented with fetal calf serum, antibiotics, and nonessential amino acids. Cells were grown at 37 °C, in a humidified atmosphere, with 5% CO2. For experiments, cells were seeded in 200 μL of complete in each well of a 96-well microtiter plate. After 24 h, compounds were added at 5, 10, 25, and 50 μM for 72 h in sextuplicate. MTT was added (0.5 mg/mL), incubated for 4 h at 37 °C, and dissolved in 200 μL of isopropyl alcohol. Absorbance was measured at 570 nm (ELISA reader, DASIT), and cell viability was calculated as viability=(ODoftreatedcells/ODofcontrolcells)×100

adult worms = assay: Adult worm viability phenotypic assay, 72 h; details: Schistosoma mansoni, read-out: IC50 (adult worm viability)
[8] = MTT cytotoxicity in MRC-5 cells; format: cell-based; details: human, MRC-5 lung diploid fibroblast cells
Experimental: as §2, §3

[9] = 5 μM, read-out: percentage of viability, 72 h
[10] = 10 μM, read-out: percentage of viability, 72 h
[11] = 25 μM, read-out: percentage of viability, 72 h
[12] = 50 μM, read-out: percentage of viability, 72 h
[13] = read-out: IC50 (cell viability)

bleaching of the flavin cofactor [1]: no bleaching
IC50 (hLSD1 direct inhibition) [2]: inactive
IC50 ([2]; read-out: IC50 (hLSD1 direct inhibition)): > 100 µM
thermal shift compared to the control [3]: no thermal shift
ΔTm ([3]; LSD1-CoREST thermal stability): 0 °C
SMILES: CC#Cc1ccc(C(=O)Nc2cccc(C3CC3N)c2)cc1.Cl (centres unmarked) [Compound 21, N-(3-(2-Aminocyclopropyl)phenyl)-4-(prop-1-yn-1-yl)benzamide Hydrochloride]

SMILES: C#Cc1ccc(C(=O)Nc2ccc(C3CC3N)cc2)cc1 (centres unmarked) [MC3935, reference compound]
time to parasite death (juvenile and adult worms): ≤ 96 h
IC50 [4]: 0.52 µM
Percentage of reduction of NTS viability, 72 h ([5]; 1 μM): 33.3 ± 0.0%
Percentage of reduction of NTS viability, 72 h ([5]; 10 μM): 45.5 ± 4.3%
Percentage of reduction of NTS viability, 72 h ([5]; 20 μM): 100 ± 0.0%
IC50 ([5]; Schistosoma mansoni, read-out: IC50 (NTS viability)): 1.95 µM
IC50 ([6]; 4 h): > 20 µM
IC50 ([6]; 24 h): > 20 µM
IC50 ([6]; 48 h): > 20 µM
IC50 ([6]; 72 h): 17.7 µM
Percentage of effect ([6]; 4 h, 1 μM): 16.67%
Percentage of effect ([6]; 4 h, 10 μM): 23.33%
Percentage of effect ([6]; 4 h, 20 μM): 41.82%
Percentage of effect ([6]; 24 h, 1 μM): 17.24%
Percentage of effect ([6]; 24 h, 10 μM): 31.03%
Percentage of effect ([6]; 24 h, 20 μM): 38.46%
Percentage of effect ([6]; 48 h, 1 μM): 26.92%
Percentage of effect ([6]; 48 h, 10 μM): 32.69%
Percentage of effect ([6]; 48 h, 20 μM): 39.58%
Percentage of effect ([6]; 72 h, 1 μM): 31.48%
Percentage of effect ([6]; 72 h, 10 μM): 39%
Percentage of effect ([6]; 72 h, 20 μM): 56.25%
Percentage of effect (NTS; 4 h, 10 μM): 21.15%
Percentage of effect (NTS; 4 h, 20 μM): 23.08%
Percentage of effect (NTS; 24 h, 10 μM): 41.07%
Percentage of effect (NTS; 24 h, 20 μM): 41.07%
Percentage of effect (NTS; 48 h, 10 μM): 34.69%
Percentage of effect (NTS; 48 h, 20 μM): 57.14%
Percentage of effect (NTS; 72 h, 10 μM): 51.02%
Percentage of effect (NTS; 72 h, 20 μM): 59.18%
IC50 (NTS; 4 h): > 20 µM
IC50 (NTS; 24 h): > 20 µM
IC50 (NTS; 48 h): 17.6 µM
IC50 (NTS; 72 h): 11.5 µM
viability at 72 h, 5 µM [7, 9]: 84 ± 18%
viability at 72 h, 10 µM [7, 10]: 87 ± 24%
viability at 72 h, 25 µM [7, 11]: 82 ± 11%
viability at 72 h, 50 µM [7, 12]: 100 ± 33%
IC50 at 72 h [7, 13]: > 100 µM
IC50 (adult worms): > 10 µM
viability at 72 h, 5 µM [8, 9]: 94 ± 10%
viability at 72 h, 10 µM [8, 10]: 97 ± 9%
viability at 72 h, 25 µM [8, 11]: 93 ± 17%
viability at 72 h, 50 µM [8, 12]: 94 ± 10%
IC50 at 72 h [8, 13]: > 100 µM
